Measurements: patent US20230278981A1, “DICHLOROPHENOL HSD17B13 INHIBITORS AND USES THEREOF” (INIPHARM, INC., priority 2020, published 2023)
Where a name gives a salt, the structure may show the parent alone.

biological target: HSD17B13 (Homo sapiens (Human), UniProt Q7Z5P4); assay: LC/MS estrone detection assay: conversion of estradiol to estrone by HSD17B13; format: biochemical; settings: 4 μM estradiol, 6 mM NAD+, 30 nM HSD17B13 enzyme (E. coli expressed His-tagged), 2 hours at 26.5° C.
Method in brief: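 His-tagged E. coli-expressed HSD17B13 (30 nM) with 4 μM estradiol and 6 mM NAD+ in 1 M potassium phosphate pH 7.4, 0.5% DMSO, 2 h at 26.5° C. Estrone and estradiol quantified by LC-MS/MS after MeCN quench with D4-estrone internal standard; activity as % of uninhibited enzyme, IC50 by four-parameter fit, duplicates.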

Chain of HSD17B13 (Q7Z5P4 20-300): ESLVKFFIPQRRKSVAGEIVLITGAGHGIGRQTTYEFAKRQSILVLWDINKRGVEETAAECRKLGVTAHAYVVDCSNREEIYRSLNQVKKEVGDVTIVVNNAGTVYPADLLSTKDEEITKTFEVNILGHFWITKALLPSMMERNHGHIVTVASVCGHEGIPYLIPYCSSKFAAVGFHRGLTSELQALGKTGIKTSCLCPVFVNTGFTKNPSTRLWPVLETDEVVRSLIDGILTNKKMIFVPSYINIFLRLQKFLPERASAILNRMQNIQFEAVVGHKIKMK

| Structure (SMILES) | IC50 [nM] |
| --- | --- |
| O=C(Nc1ccnc2ncn(Cc3ccccc3OC(F)(F)F)c(=O)c12)c1cc(Cl)c(O)c(Cl)c1 [Example 92, 3,5-dichloro-4-hydroxy-N-(4-oxo-3-(2-(trifluoromethoxy)benzyl)-3,4-dihydropyrido[2,3-d]pyrimidin-5-yl)benzamide] | 100 to 500 |
| Cn1c(=O)n(Cc2ccccc2OC(F)(F)F)c(=O)c2c(NC(=O)c3cc(Cl)c(O)c(Cl)c3)cccc21 [Example 93, 3,5-dichloro-4-hydroxy-N-(1-methyl-2,4-dioxo-3-(2-(trifluoromethoxy)benzyl)-1,2,3,4-tetrahydroquinazolin-5-yl)benzamide] | ≤ 100 |
| Cc1ccc2ncn(Cc3ccccc3OC(F)(F)F)c(=O)c2c1NC(=O)c1cc(Cl)c(O)c(Cl)c1 [Example 94, 3,5-dichloro-4-hydroxy-N-(6-methyl-4-oxo-3-(2-(trifluoromethoxy)benzyl)-3,4-dihydroquinazolin-5-yl)benzamide] | 100 to 500 |
| O=C(Nc1ccnc2[nH]c(=O)n(Cc3ccccc3OC(F)(F)F)c(=O)c12)c1cc(Cl)c(O)c(Cl)c1 [Example 95, 3,5-dichloro-N-(2,4-dioxo-3-(2-(trifluoromethoxy)benzyl)-1,2,3,4-tetrahydropyrido[2,3-d]pyrimidin-5-yl)-4-hydroxybenzamide] | 100 to 500 |
| Cc1nc2nccc(NC(=O)c3cc(Cl)c(O)c(Cl)c3)c2c(=O)n1Cc1ccccc1OC(F)(F)F [Example 96, 3,5-dichloro-4-hydroxy-N-(2-methyl-4-oxo-3-(2-(trifluoromethoxy)benzyl)-3,4-dihydropyrido[2,3-d]pyrimidin-5-yl)benzamide] | ≤ 100 |
| O=C(Nc1csc2ncn(Cc3ccccc3)c(=O)c12)c1cc(Cl)c(O)c(Cl)c1 [Example 97, N-(3-benzyl-4-oxo-3,4-dihydrothieno[2,3-d]pyrimidin-5-yl)-3,5-dichloro-4-hydroxybenzamide] | 100 to 500 |
| O=C(Nc1csc2ncn(Cc3ccccc3)c(=O)c12)c1cc(Cl)c(O)c(Cl)n1 [Example 98, N-(3-benzyl-4-oxo-3,4-dihydrothieno[2,3-d]pyrimidin-5-yl)-4,6-dichloro-5-hydroxypicolinamide] | 100 to 500 |
| Cn1nc(NC(=O)c2cc(Cl)c(O)c(Cl)c2)c2c(=O)n(Cc3ccccc3)cnc21 [Example 99, N-(5-benzyl-1-methyl-4-oxo-4,5-dihydro-1H-pyrazolo[3,4-d]pyrimidin-3-yl)-3,5-dichloro-4-hydroxybenzamide] | 1000 to 10000 |
| O=C(Nc1cccc2ncn(Cc3cnn4ccccc34)c(=O)c12)c1cc(Cl)c(O)c(Cl)c1 [Example 100, 3,5-dichloro-4-hydroxy-N-(4-oxo-3-(pyrazolo[1,5-a]pyridin-3-ylmethyl)-3,4-dihydroquinazolin-5-yl)benzamide] | 100 to 500 |
| O=C(Nc1cccc2nc(C(F)(F)F)n(C3CC3c3ccccc3)c(=O)c12)c1cc(Cl)c(O)c(Cl)n1 (centres unmarked) [Example 101, 4,6-dichloro-5-hydroxy-N-(4-oxo-3-(2-phenylcyclopropyl)-2-(trifluoromethyl)-3,4-dihydroquinazolin-5-yl)picolinamide] | 1000 to 10000 |
| O=C(Nc1csc2ncn(Cc3ccccc3OC(F)(F)F)c(=O)c12)c1cc(Cl)c(O)c(Cl)c1 [Example 103, 3,5-dichloro-4-hydroxy-N-(4-oxo-3-(2-(trifluoromethoxy)benzyl)-3,4-dihydrothieno[2,3-d]pyrimidin-5-yl)benzamide] | 100 to 500 |
| O=C(Nc1csc2ncn(Cc3ccccc3OC(F)(F)F)c(=O)c12)c1cc(Cl)c(O)c(Cl)n1 [Example 104, 4,6-dichloro-5-hydroxy-N-(4-oxo-3-(2-(trifluoromethoxy)benzyl)-3,4-dihydrothieno[2,3-d]pyrimidin-5-yl)picolinamide] | 100 to 500 |
| Cn1ccc(-c2ccccc2Cn2cnc3cccc(NC(=O)c4cc(Cl)c(O)c(Cl)c4)c3c2=O)n1 [Example 105, 3,5-dichloro-4-hydroxy-N-(3-(2-(1-methyl-1H-pyrazol-3-yl)benzyl)-4-oxo-3,4-dihydroquinazolin-5-yl)benzamide] | 100 to 500 |
| NS(=O)(=O)c1ccccc1Cn1cnc2cccc(NC(=O)c3cc(Cl)c(O)c(Cl)c3)c2c1=O [Example 106, 3,5-dichloro-4-hydroxy-N-(4-oxo-3-(2-sulfamoylbenzyl)-3,4-dihydroquinazolin-5-yl)benzamide] | > 10000 |
| Cn1nc(NC(=O)c2cc(Cl)c(O)c(Cl)n2)c2c(=O)n(Cc3ccccc3)cnc21 [Example 107, N-(5-benzyl-1-methyl-4-oxo-4,5-dihydro-1H-pyrazolo[3,4-d]pyrimidin-3-yl)-4,6-dichloro-5-hydroxypicolinamide] | 500 to 1000 |
| O=C(Nc1cccc2ncn([C@@H]3C[C@H]3c3ccccc3)c(=O)c12)c1cc(Cl)c(O)c(Cl)n1 [Example 108, 4,6-dichloro-5-hydroxy-N-(4-oxo-3-((1R,2S)-2-phenylcyclopropyl)-3,4-dihydroquinazolin-5-yl)picolinamide TFA Salt] | 500 to 1000 |

| Structure (SMILES) | IC50 [nM] |
| --- | --- |
| O=C(Nc1cccc2ncn([C@H]3C[C@@H]3c3ccccc3)c(=O)c12)c1cc(Cl)c(O)c(Cl)n1 [Example 109, 4,6-dichloro-5-hydroxy-N-(4-oxo-3-((1S,2R)-2-phenylcyclopropyl)-3,4-dihydroquinazolin-5-yl)picolinamide] | 1000 to 10000 |
| O=C(Nc1cccc2ncn(Cc3ccccc3-c3ccccn3)c(=O)c12)c1cc(Cl)c(O)c(Cl)n1 [Example 110, 4,6-dichloro-5-hydroxy-N-(4-oxo-3-(2-(pyridin-2-yl)benzyl)-3,4-dihydroquinazolin-5-yl)picolinamide] | 100 to 500 |
| Cc1ccc(NC(=O)c2cc(Cl)c(O)c(Cl)c2)c2c(=O)n(Cc3ccccc3OC(F)(F)F)c(C(F)(F)F)nc12 [Example 112, 3,5-dichloro-4-hydroxy-N-(8-methyl-4-oxo-3-(2-(trifluoromethoxy)benzyl)-2-(trifluoromethyl)-3,4-dihydroquinazolin-5-yl)benzamide] | 100 to 500 |
| Cn1c(=O)n(Cc2ccccc2OC(F)(F)F)c(=O)c2c(NC(=O)c3cc(Cl)c(O)c(Cl)n3)cccc21 [Example 113, 4,6-dichloro-5-hydroxy-N-(1-methyl-2,4-dioxo-3-(2-(trifluoromethoxy)benzyl)-1,2,3,4-tetrahydroquinazolin-5-yl)picolinamide] | 100 to 500 |
| Cc1nsc(NC(=O)c2cc(Cl)c(O)c(Cl)n2)c1C(=O)NCc1ccccc1F [Example 114, 5-(4,6-dichloro-5-hydroxypicolinamido)-N-(2-fluorobenzyl)-3-methylisothiazole-4-carboxamide] | 100 to 500 |
| Cc1nsc(NC(=O)c2cc(Cl)c(O)c(Cl)n2)c1C(=O)N[C@@H](C)c1ccccc1F [Example 115, (S)-5-(4,6-dichloro-5-hydroxypicolinamido)-N-(1-(2-fluorophenyl)ethyl)-3-methylisothiazole-4-carboxamide] | 100 to 500 |
| O=C(Nc1cccc2nc(C(F)(F)F)n(C3CC3c3ccccc3)c(=O)c12)c1cc(Cl)c(O)c(Cl)c1 (centres unmarked) [Example 116, 3,5-dichloro-4-hydroxy-N-(4-oxo-3-(2-phenylcyclopropyl)-2-(trifluoromethyl)-3,4-dihydroquinazolin-5-yl)benzamide] | 100 to 500 |
| Cn1nc(Cn2cnc3cccc(NC(=O)c4cc(Cl)c(O)c(Cl)c4)c3c2=O)c2ccccc21 [Example 117, 3,5-dichloro-4-hydroxy-N-(3-((1-methyl-1H-indazol-3-yl)methyl)-4-oxo-3,4-dihydroquinazolin-5-yl)benzamide] | ≤ 100 |
| Cn1nc(NC(=O)c2cc(Cl)c(O)c(Cl)c2)c2c(=O)n(Cc3ccccc3OC(F)(F)F)cnc21 [Example 118, 3,5-dichloro-4-hydroxy-N-(1-methyl-4-oxo-5-(2-(trifluoromethoxy)benzyl)-4,5-dihydro-1H-pyrazolo[3,4-d]pyrimidin-3-yl)benzamide] | 500 to 1000 |
| Cn1nc(NC(=O)c2cc(Cl)c(O)c(Cl)n2)c2c(=O)n(Cc3ccccc3OC(F)(F)F)cnc21 [Example 119, 4,6-dichloro-5-hydroxy-N-(1-methyl-4-oxo-5-(2-(trifluoromethoxy)benzyl)-4,5-dihydro-1H-pyrazolo[3,4-d]pyrimidin-3-yl)picolinamide] | 100 to 500 |
| O=C(NCc1ccccc1OC(F)(F)F)C1CCCCN1C(=O)c1cc(Cl)c(O)c(Cl)n1 (centres unmarked) [Example 120, 1-(4,6-dichloro-5-hydroxypicolinoyl)-N-(2-(trifluoromethoxy)benzyl) piperidine-2-carboxamide] | 1000 to 10000 |
| O=C(Nc1cccc2ncn([C@H]3CC[C@@H]3c3ccccc3)c(=O)c12)c1cc(Cl)c(O)c(Cl)c1 [Example 121, 3,5-dichloro-4-hydroxy-N-(4-oxo-3-((1S,2R)-2-phenylcyclobutyl)-3,4-dihydroquinazolin-5-yl)benzamide] | 100 to 500 |
| O=C(Nc1cccc2ncn(Cc3cccnc3Cl)c(=O)c12)c1cc(Cl)c(O)c(Cl)c1 [Example 122, 3,5-dichloro-N-(3-((2-chloropyridin-3-yl)methyl)-4-oxo-3,4-dihydroquinazolin-5-yl)-4-hydroxybenzamide] | 100 to 500 |
| O=C(Nc1cccc2ncn(C(CN3CCOCC3)c3ccccc3)c(=O)c12)c1cc(Cl)c(O)c(Cl)c1 (centres unmarked) [Example 123, 3,5-dichloro-4-hydroxy-N-(3-(2-morpholino-1-phenylethyl)-4-oxo-3,4-dihydroquinazolin-5-yl)benzamide] | 100 to 500 |
| O=C(Nc1nccc2ncn(Cc3ccccc3OC(F)(F)F)c(=O)c12)c1cc(Cl)c(O)c(Cl)c1 [Example 124, 3,5-dichloro-4-hydroxy-N-(4-oxo-3-(2-(trifluoromethoxy)benzyl)-3,4-dihydropyrido[4,3-d]pyrimidin-5-yl)benzamide] | 1000 to 10000 |
| O=C(Nc1sc(C(F)(F)F)nc1C(=O)NCc1ccccc1OC(F)(F)F)c1cc(Cl)c(O)c(Cl)c1 [Example 125, 5-(3,5-dichloro-4-hydroxybenzamido)-N-(2-(trifluoromethoxy)benzyl)-2-(trifluoromethyl)thiazole-4-carboxamide] | 100 to 500 |
